Data reported in patent publication US20180200257A1, “METHODS FOR THE TREATMENT OF INFLAMMATORY DISORDERS” (Galapagos NV, priority 2015, published 2018).

Tested on: subjects with moderately to severely active RA who have an inadequate response to methotrexate (MTX)
Test: Study 1 (add-on to MTX) - DAS28(CRP) scores
Assay type: in vivo, human
Set-up: key to DAS28(CRP) mean CFB (LOCF): change from baseline in DAS28(CRP) score (joints, CRP, 0-100 VAS)
Description: Double-blind, placebo-controlled add on study in subjects with moderately to severely active RA who have an inadequate response to methotrexate (MTX) (oral or parenteral).
595 subjects randomized to one of 6 dose regimens of Compound 1 (dosed as [Compound 1:HCl:3H2O]) (3 dose levels administered either once or twice daily) or placebo on top of each subject's stable dose of MTX.
Compound 1 (dosed as [Compound 1:HCl:3H2O]) is dosed for twelve weeks once daily (q.d.) (50 mg, 100 mg or 200 mg) or twice daily (b.i.d.) (25 mg, 50 mg or 100 mg); or placebo.
At Week 12, the subjects on placebo who have not achieved 20% improvement in swollen joint count (SJC66) and tender joint count (TJC68) are re-randomized automatically to receive Compound 1 (dosed as a [Compound 1:HCl:3H2O]) either at 100 mg q.d. or 50 mg b.i.d. doses in a blinded fashion; subjects on 50 mg q.d. who have not achieved 20% improvement in SJC66 and TJC68 will be assigned to 100 mg q.d. and subjects on 25 mg b.i.d. that have not achieved a 20% improvement in SJC66 and TJC68 will be assigned to 50 mg b.i.d. Subjects who switch treatment at week 12 are handled as if they discontinued at week 12 for the purpose of statistical analysis, whereas subjects in the other groups will maintain their randomized treatment until Week 24.
The (DAS28(CRP)) is a system developed and validated by the European League Against Rheumatism (EULAR) to measure the progress and improvement of rheumatoid arthritis and has been extensively validated (Wells et al., 2008). The DAS28(CRP) scoring includes a 28 tender and swollen joint count, CRP measurement from blood analysis, and a general health assessment on a visual analog scale (Fransen et al., 2003).
DAS28(CRP) values range from 2.0 to 10.0, and more particularly reflect the following status: • Remission: DAS28(CRP) ≤2.6 • Low Disease activity: 2.6 <DAS28(CRP) ≤3.2 • Moderate Disease Activity: 3.2 <DAS28(CRP) ≤5.1 • High Disease Activity: DAS28(CRP) >5.1
In practice, the DAS28(CRP) measurement involves the evaluation 28 different joints including in the measurement (proximal interphalangeal joints (10 joints), metacarpophalangeal joints (10), wrists (2), elbows (2), shoulders (2), and knees (2)). When looking at these joints, both the number of joints with tenderness upon touching and swelling are counted.
Secondly, C-reactive protein level is measured.
Finally, the patient makes a subjective assessment of disease activity during the preceding 7 days on a scale between 0 and 100, where 0 is “no activity” and 100 is “highest activity possible”.
The DAS28(CRP) score is then calculated as follows:
Firstly, the patient is asked to make a vertical mark on a 100 mm Visual Analog Scale (VAS) corresponding to their general health or global disease activity on a touch screen to measure the VAS value, which is used in the formula below.
Secondly, a swollen and tender joint examination is then performed on the patient. The swollen and tender joints are recorded. From this examination are obtained the total amount of swollen joints (SJC) and the total amount of tender joints (TJC), which are used in the formula below.
Thirdly, C-reactive protein (CRP) levels are measured.
Finally, the values obtained above (VAS, TJC28, SJC28, and CRP) are computed into the following Formula to obtain the DAS28(CRP) score.
DAS28(CRP)=0.56*√{square root over (TJC28)}+0.28√{square root over (SJC28)}+[…] ln(CRP+1)+0.014*VAS
The improvement (decreases) in the DAS28(CRP) scores for each patient group at weeks 1, 2, 4, 8 and 12 is shown in Table LXXXVII and Table LXXXVIII below, together with the Hommel-corrected p-value for the pairwise comparisons of each group with placebo.
The number of subjects (N) provided in each groups corresponds to the number of subjects starting the study in each group, and the DAS28 (CRP) data reported below corresponds to the responding subjects continuing for the entire 24 weeks on their initial treatment course.

[1] = 2 × 25 mg b.i.d., 12 weeks results
[2] = 2 × 25 mg b.i.d., 24 weeks results
[3] = 2 × 50 mg b.i.d., 12 weeks results
[4] = 2 × 50 mg b.i.d., 24 weeks results
[5] = 2 × 100 mg b.i.d., 12 weeks results
[6] = 2 × 100 mg b.i.d., 24 weeks results

In the case of `O=C(Nc1nc2cccc(-c3ccc(CN4CCS(=O)(=O)CC4)cc3)n2n1)C1CC1` [Compound 1, cyclopropanecarboxylic acid {5-[4-(1,1-dioxo-thiomorpholin-4-ylmethyl)-phenyl]-[1,2,4]triazolo[1,5-a]pyridin-2-yl}-amide], the “DAS28(CRP) mean CFB (LOCF)” value (2 × 25 mg b.i.d., week 2, 12 weeks results) is reported as −1.06, the “DAS28(CRP) mean CFB (LOCF)” value (2 × 25 mg b.i.d., week 2, 24 weeks results) is reported as −1.06 and the “DAS28(CRP) mean CFB (LOCF)” value (2 × 25 mg b.i.d., week 4, 12 weeks results) is reported as −1.45. The “DAS28(CRP) mean CFB (LOCF)” value (2 × 25 mg b.i.d., week 4, 24 weeks results) was −1.45, the “DAS28(CRP) mean CFB (LOCF)” value (2 × 25 mg b.i.d., week 8, 12 weeks results) was −1.82 and the “DAS28(CRP) mean CFB (LOCF)” value (2 × 25 mg b.i.d., week 8, 24 weeks results) was −1.82. The “DAS28(CRP) mean CFB (LOCF)” value (2 × 25 mg b.i.d., week 12, 12 weeks results) was −1.88, the “DAS28(CRP) mean CFB (LOCF)” value (2 × 25 mg b.i.d., week 12, 24 weeks results) was −1.88 and the “DAS28(CRP) mean CFB (LOCF)” value (2 × 25 mg b.i.d., week 16, 24 weeks results) was −2.02. The “DAS28(CRP) mean CFB (LOCF)” value (2 × 25 mg b.i.d., week 20, 24 weeks results) was −2.07, the “DAS28(CRP) mean CFB (LOCF)” value (2 × 25 mg b.i.d., week 24, 24 weeks results) was −2.19 and the “% patients reaching low disease activity and/or remission at week 12 (LOCF)” value [1] was 28%. For the same compound, the “% patients reaching low disease activity at week 12 (LOCF)” value [1] was 13%, the “% patients reaching remission at week 12 (LOCF)” value [1] was 15% and the “% patients reaching low disease activity and/or remission at week 24 (LOCF)” value [2] was 40%. The “% patients reaching low disease activity at week 24 (LOCF)” value [2] was 16%, the “% patients reaching remission at week 24 (LOCF)” value [2] was 23% and the “DAS28(CRP) mean CFB (LOCF)” value (2 × 25 mg b.i.d., Week 1, 12 weeks results) was −0.68. The “DAS28(CRP) mean CFB (LOCF)” value (2 × 25 mg b.i.d., Week 1, 24 weeks results) was −0.68, the “DAS28(CRP) mean CFB (LOCF)” value (2 × 50 mg b.i.d., week 2, 12 weeks results) was −1.22 and the “DAS28(CRP) mean CFB (LOCF)” value (2 × 50 mg b.i.d., week 2, 24 weeks results) was −1.22. For the same compound, the “DAS28(CRP) mean CFB (LOCF)” value (2 × 50 mg b.i.d., week 4, 12 weeks results) was −1.65, the “DAS28(CRP) mean CFB (LOCF)” value (2 × 50 mg b.i.d., week 4, 24 weeks results) was −1.63 and the “DAS28(CRP) mean CFB (LOCF)” value (2 × 50 mg b.i.d., week 8, 12 weeks results) was −1.93. For the same compound, the “DAS28(CRP) mean CFB (LOCF)” value (2 × 50 mg b.i.d., week 8, 24 weeks results) was −1.93, the “DAS28(CRP) mean CFB (LOCF)” value (2 × 50 mg b.i.d., week 12, 12 weeks results) was −2.10 and the “DAS28(CRP) mean CFB (LOCF)” value (2 × 50 mg b.i.d., week 12, 24 weeks results) was −2.10. The “DAS28(CRP) mean CFB (LOCF)” value (2 × 50 mg b.i.d., week 16, 24 weeks results) was −2.37, the “DAS28(CRP) mean CFB (LOCF)” value (2 × 50 mg b.i.d., week 20, 24 weeks results) was −2.40 and the “DAS28(CRP) mean CFB (LOCF)” value (2 × 50 mg b.i.d., week 24, 24 weeks results) was −2.40. The “% patients reaching low disease activity and/or remission at week 12 (LOCF)” value [3] was 29%, the “% patients reaching low disease activity at week 12 (LOCF)” value [3] was 11% and the “% patients reaching remission at week 12 (LOCF)” value [3] was 18%. For the same compound, the “% patients reaching low disease activity and/or remission at week 24 (LOCF)” value [4] was 38%, the “% patients reaching low disease activity at week 24 (LOCF)” value [4] was 14% and the “% patients reaching remission at week 24 (LOCF)” value [4] was 24%. The “DAS28(CRP) mean CFB (LOCF)” value (2 × 50 mg b.i.d., Week 1, 12 weeks results) was −0.84, the “DAS28(CRP) mean CFB (LOCF)” value (2 × 50 mg b.i.d., Week 1, 24 weeks results) was −0.84 and the “DAS28(CRP) mean CFB (LOCF)” value (2 × 100 mg b.i.d., week 2, 12 weeks results) was −1.84. For the same compound, the “DAS28(CRP) mean CFB (LOCF)” value (2 × 100 mg b.i.d., week 2, 24 weeks results) was −1.84, the “DAS28(CRP) mean CFB (LOCF)” value (2 × 100 mg b.i.d., week 4, 12 weeks results) was −2.28 and the “DAS28(CRP) mean CFB (LOCF)” value (2 × 100 mg b.i.d., week 4, 24 weeks results) was −2.24. The “DAS28(CRP) mean CFB (LOCF)” value (2 × 100 mg b.i.d., week 8, 12 weeks results) was −2.72, the “DAS28(CRP) mean CFB (LOCF)” value (2 × 100 mg b.i.d., week 8, 24 weeks results) was −2.72 and the “DAS28(CRP) mean CFB (LOCF)” value (2 × 100 mg b.i.d., week 12, 12 weeks results) was −2.84. The “DAS28(CRP) mean CFB (LOCF)” value (2 × 100 mg b.i.d., week 12, 24 weeks results) was −2.84, the “DAS28(CRP) mean CFB (LOCF)” value (2 × 100 mg b.i.d., week 16, 24 weeks results) was −3.06 and the “DAS28(CRP) mean CFB (LOCF)” value (2 × 100 mg b.i.d., week 20, 24 weeks results) was −3.02. The “DAS28(CRP) mean CFB (LOCF)” value (2 × 100 mg b.i.d., week 24, 24 weeks results) was −3.23, the “% patients reaching low disease activity and/or remission at week 12 (LOCF)” value [5] was 50% and the “% patients reaching low disease activity at week 12 (LOCF)” value [5] was 14%. The “% patients reaching remission at week 12 (LOCF)” value [5] was 36%, the “% patients reaching low disease activity and/or remission at week 24 (LOCF)” value [6] was 64% and the “% patients reaching low disease activity at week 24 (LOCF)” value [6] was 24%. For the same compound, the “% patients reaching remission at week 24 (LOCF)” value [6] was 40%, the “DAS28(CRP) mean CFB (LOCF)” value (2 × 100 mg b.i.d., Week 1, 12 weeks results) was −1.33 and the “DAS28(CRP) mean CFB (LOCF)” value (2 × 100 mg b.i.d., Week 1, 24 weeks results) was −1.33.
